IC50 data for 15 compounds are collected here from patent US20240409585A1, “MACROCYCLIC IMMUNOMODULATORS” (priority 2021, published 2024).

SMILES strings stand for the structures. Bridge positions count the residues as written; N and C are the ends. Square brackets hold non-standard residues; d marks the D form. Peptide text beside a SMILES is read from it. * marks the point of attachment. ξ: configuration not given here. Trp(5-CN) = N#Cc1ccc2[nH]cc(C[C@H](N)C(=O)O)c2c1; Phe(3-CF3) = N[C@@H](Cc1cccc(C(F)(F)F)c1)C(=O)O; Phe(4-COOH) = N[C@@H](Cc1ccc(C(=O)O)cc1)C(=O)O; Bip = N[C@@H](Cc1ccc(-c2ccccc2)cc1)C(=O)O; Phe(3-OMe) = COc1cccc(C[C@H](N)C(=O)O)c1; Phe(3-Me) = Cc1cccc(C[C@H](N)C(=O)O)c1; Val(3-OH) = CC(C)(O)[C@H](N)C(=O)O; NMePhg = CN[C@H](C(=O)O)c1ccccc1; 4Pal = N[C@@H](Cc1ccncc1)C(=O)O; Cha = N[C@@H](CC1CCCCC1)C(=O)O; Cit = NC(=O)NCCC[C@H](N)C(=O)O; Carboxymethyl = O=C(O)C*; NMeA = CN[C@@H](C)C(=O)O; Nle = CCCC[C@H](N)C(=O)O; Dab = NCC[C@H](N)C(=O)O; Dap = NC[C@H](N)C(=O)O; NH(CH2)5NH2 = NCCCCCN*; ξV = CC(C)C(N)C(=O)O

T1 sequence (Q15116 25-288): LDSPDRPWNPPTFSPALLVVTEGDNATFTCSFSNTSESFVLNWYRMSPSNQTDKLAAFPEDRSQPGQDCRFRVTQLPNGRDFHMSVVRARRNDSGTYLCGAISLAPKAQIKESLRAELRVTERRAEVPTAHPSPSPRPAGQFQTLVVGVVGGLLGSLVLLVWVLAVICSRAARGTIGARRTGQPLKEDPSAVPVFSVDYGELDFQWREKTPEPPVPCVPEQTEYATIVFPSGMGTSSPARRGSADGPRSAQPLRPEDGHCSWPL

This experiment addresses T1, PE-labeled human PD-L1-Ig binding to Jurkat cell line over-expressing human PD-1 (Jurkat-PD-1) (Homo sapiens, UniProt Q15116).
T1 construct: expressed in transfected cells; host or cells: Jurkat
Nature of the experiment: Jurkat-PD-1 Cell Binding High-Content Screening Assay (CBA): Method 1. The following applies: Jurkat-hPD-1 cells, PE-labeled PD-L1-Ig 20 nM final; read-out: Jurkat HPDL1 PD1 IC50 (uM) (Method 1).
For `CC(C)C[C@@H]1NC(=O)[C@H](Cc2c[nH]c3ccccc23)NC(=O)[C@H](CC(=O)O)NC(=O)[C@H](Cc2ccc(C(=O)O)cc2)NC(=O)[C@H](Cc2ccc(OCC(=O)O)cc2)NC(=O)CSC[C@@H](C(=O)NCC(N)=O)NC(=O)[C@H](CO)NC(=O)[C@H](C(C)C)NC(=O)[C@H](CC(C)C)NC(=O)[C@H](CC(N)=O)NC(=O)[C@@H](CC(C)C)NC(=O)[C@H](C)N(C)C(=O)[C@H](C(C)C)NC(=O)[C@H](Cc2ccc(-c3ccccc3)cc2)NC1=O` [Compound 1548] ({CH2CO}-Y(Carboxymethyl)[Phe(4-COOH)]DWL[Bip]V[NMeA][dL]NLVSCG-NH2; thioether N-14), the IC50 stood at 0.01 µM. The result for `CCC(C)[C@@H]1NC(=O)[C@H](Cc2ccc(-c3ccccc3)cc2)NC(=O)[C@H](C(C)C)NC(=O)[C@H](Cc2c[nH]c3ccccc23)NC(=O)[C@H](CC(=O)O)NC(=O)[C@H](Cc2ccc(C(=O)O)cc2)NC(=O)[C@H](Cc2ccc(OCC(=O)O)cc2)NC(=O)CSC[C@@H](C(=O)N[C@@H](CCC(=O)O)C(=O)N[C@H](C(N)=O)C(=O)O)NC(=O)[C@H](CO)NC(=O)[C@H](C(C)C)NC(=O)[C@H](CC2CCCCC2)NC(=O)[C@H](CC(N)=O)NC(=O)[C@@H](CC(C)C)NC(=O)[C@H](C)N(C)C1=O` (stereo partly drawn) [Compound 2008] reads 0.04 µM; that for `CCCC[C@@H]1NC(=O)[C@H](CCCNC(=N)N)NC(=O)[C@@H](CC(C)C)NC(=O)[C@H](C)N(C)C(=O)[C@H](CCCNC(N)=O)NC(=O)[C@H](Cc2ccc(-c3ccccc3)cc2)NC(=O)[C@H](C(C)C)NC(=O)[C@H](Cc2c[nH]c3ccccc23)NC(=O)[C@H](CC(=O)O)NC(=O)[C@H](Cc2ccc(O)cc2)NC(=O)[C@H](CC(N)=O)NC(=O)CSC[C@@H](C(=O)N[C@@H](C)C(N)=O)NC(=O)[C@H]([C@@H](C)O)NC(=O)[C@H](C(C)C)NC1=O` [Compound 1285] ({CH2CO}-NYDWV[Bip][Cit][NMeA][dL]R[Nle]VTCA-NH2; thioether N-14), 0.05 µM. The result for `CC(C)C[C@@H]1NC(=O)[C@H](Cc2c[nH]c3ccccc23)NC(=O)[C@H](CC(=O)O)NC(=O)[C@H](Cc2ccc(OCC(=O)O)cc2)NC(=O)[C@H](Cc2ccc(OCC(=O)O)cc2)NC(=O)CSC[C@@H](C(=O)NCC(N)=O)NC(=O)[C@H](CO)NC(=O)[C@H](C(C)C)NC(=O)[C@H](CC(C)C)NC(=O)[C@H](CC(N)=O)NC(=O)[C@@H](CC(C)C)NC(=O)[C@H](C)N(C)C(=O)[C@H](C(C)C)NC(=O)[C@H](Cc2ccc(-c3ccccc3)cc2)NC1=O` [Compound 1550] ({CH2CO}-Y(Carboxymethyl)Y(Carboxymethyl)DWL[Bip]V[NMeA][dL]NLVSCG-NH2; thioether N-14) reads 0.01 µM; that for `Cc1cccc(C[C@@H]2NC(=O)[C@H](CC(=O)O)NC(=O)[C@H](Cc3ccc(OCC(=O)O)cc3)NC(=O)[C@H](CN)NC(=O)CSC[C@@H](C(N)=O)NC(=O)[C@H](CC(N)=O)NC(=O)[C@H](C(C)C)NC(=O)[C@H](CC3CCCCC3)NC(=O)[C@H](CCN)NC(=O)[C@@H](CC(C)C)NC(=O)[C@H](C)N(C)C(=O)[C@H](Cc3ccc(OCC(=O)O)cc3)NC(=O)[C@H](Cc3ccc(-c4ccccc4)cc3)NC(=O)[C@H](Cc3ccc(OCC(=O)O)cc3)NC2=O)c1` [Compound 1647] ({CH2CO}-[Dap]Y(Carboxymethyl)D[Phe(3-Me)]Y(Carboxymethyl)[Bip]Y(Carboxymethyl)[NMeA][dL][Dab][Cha]VNC-NH2; thioether N-14), 0.04 µM. As for `CC(C)C[C@@H]1NC(=O)[C@H](Cc2c[nH]c3ccccc23)NC(=O)[C@H](CC(=O)O)NC(=O)[C@H](Cc2ccc(O)cc2)NC(=O)[C@H](Cc2ccccc2)NC(=O)CSC[C@@H](C(=O)NCC(N)=O)NC(=O)[C@H](CO)NC(=O)[C@H](C(C)C)NC(=O)[C@H](CC(C)C)NC(=O)[C@H](CC(N)=O)NC(=O)[C@@H](C)NC(=O)[C@H](C)N(C)C(=O)[C@H](C(C)C)NC(=O)[C@H](Cc2ccc(-c3ccccc3)cc2)NC1=O` [Compound 1729] ({CH2CO}-FYDWL[Bip]V[NMeA][dA]NLVSCG-NH2; thioether N-14), the half-maximal inhibitory concentration (IC50) is 0.01 µM.

Turning to `COc1cccc(C[C@@H]2NC(=O)[C@H](CC(N)=O)NC(=O)CSC[C@@H](C(=O)N[C@@H](C)C(N)=O)NC(=O)[C@H]([C@@H](C)O)NC(=O)[C@H](C(C)C)NC(=O)[C@H](CC(C)C)NC(=O)[C@H](CCN)NC(=O)[C@@H](CC(C)C)NC(=O)[C@H](C)N(C)C(=O)[C@H](CCCNC(=N)N)NC(=O)[C@H](Cc3ccc(-c4ccccc4)cc3)NC(=O)[C@H](C(C)C)NC(=O)[C@H](Cc3c[nH]c4ccccc34)NC(=O)[C@H](CC(=O)O)NC2=O)c1` [Compound 1307] ({CH2CO}-N[Phe(3-OMe)]DWV[Bip]R[NMeA][dL][Dab]LVTCA-NH2; thioether N-14), the IC50 turned out to be 0.1 µM. As for `CC(C)C[C@@H]1NC(=O)[C@H](CCN)NC(=O)[C@@H](CC(C)C)NC(=O)[C@H](C)N(C)C(=O)[C@H](Cc2cnc[nH]2)NC(=O)[C@H](Cc2ccc(-c3ccccc3)cc2)NC(=O)[C@H](C(C)C)NC(=O)[C@H](Cc2c[nH]c3ccccc23)NC(=O)[C@H](CC(=O)O)NC(=O)[C@H](Cc2cccc(C(F)(F)F)c2)NC(=O)[C@H](CN)NC(=O)CSC[C@@H](C(=O)N[C@@H](C)C(N)=O)NC(=O)[C@H]([C@@H](C)O)NC(=O)[C@H](C(C)C)NC1=O` [Compound 1434] ({CH2CO}-[Dap][Phe(3-CF3)]DWV[Bip]H[NMeA][dL][Dab]LVTCA-NH2; thioether N-14), the IC50 was found to be 0.05 µM. `CC(C)C[C@@H]1NC(=O)[C@H](CCN)NC(=O)[C@@H](CC(C)C)NC(=O)[C@H](C)N(C)C(=O)[C@H](CCCNC(=N)N)NC(=O)[C@H](Cc2ccc(-c3ccccc3)cc2)NC(=O)[C@H](C(C)C)NC(=O)[C@H](Cc2c[nH]c3ccc(C#N)cc23)NC(=O)[C@H](CC(=O)O)NC(=O)[C@H](Cc2ccc(O)cc2)NC(=O)[C@H](Cc2ccccc2)NC(=O)CSC[C@@H](C(=O)N[C@@H](C)C(N)=O)NC(=O)[C@H]([C@@H](C)O)NC(=O)[C@H](C(C)C)NC1=O` [Compound 1203] ({CH2CO}-FYD[Trp(5-CN)]V[Bip]R[NMeA][dL][Dab]LVTCA-NH2; thioether N-14): the IC50 came to 0.1 µM.

As for `CC(C)C[C@H]1NC(=O)[C@H](C)N(C)C(=O)[C@H](C(C)C)NC(=O)[C@H](Cc2ccc(-c3ccccc3)cc2)NC(=O)[C@H](C(C)C)NC(=O)[C@H](Cc2c[nH]c3ccccc23)NC(=O)[C@H](CC(N)=O)NC(=O)[C@H](Cc2ccc(OCC(=O)O)cc2)NC(=O)[C@H](Cc2ccccc2)NC(=O)CSC[C@@H](C(=O)N[C@@H](C)C(=O)NCCCCCN)NC(=O)[C@H](CO)NC(=O)C(C(C)C)NC(=O)[C@H](CC2CCCCC2)NC(=O)[C@H](CC(N)=O)NC1=O` (stereo partly drawn) [Compound 2240] ({CH2CO}-FY(Carboxymethyl)NWV[Bip]V[NMeA][dL]N[Cha][ξV]SCA-{NH(CH2)5NH2}; thioether N-14), the IC50 turned out to be 0.04 µM. Consider `CC(C)C[C@H]1NC(=O)[C@H](C)N(C)C(=O)[C@H](CCCNC(N)=O)NC(=O)[C@H](Cc2ccc(-c3ccccc3)cc2)NC(=O)[C@H](C(C)C)NC(=O)[C@H](Cc2c[nH]c3ccccc23)NC(=O)[C@H](CC(=O)O)NC(=O)[C@H](Cc2ccc(O)cc2)NC(=O)[C@H](Cc2ccc(OCC(=O)O)cc2)NC(=O)CSC[C@@H](C(=O)N[C@@H](C)C(N)=O)NC(=O)[C@H]([C@@H](C)O)NC(=O)[C@H](C(C)C)NC(=O)[C@H](CC2CCCCC2)NC(=O)[C@H](CCCNC(=N)N)NC1=O` [Compound 1504] ({CH2CO}-Y(Carboxymethyl)YDWV[Bip][Cit][NMeA][dL]R[Cha]VTCA-NH2; thioether N-14), for which the IC50 came to 0.02 µM.

In the case of `CC(C)C[C@@H]1NC(=O)[C@H](Cc2c[nH]c3ccccc23)NC(=O)[C@H](CC(=O)O)NC(=O)[C@H](Cc2ccc(C(=O)O)cc2)NC(=O)[C@H](Cc2ccc(OCC(=O)O)cc2)NC(=O)CSC[C@@H](C(N)=O)NC(=O)[C@H](CO)NC(=O)[C@H](C(C)C)NC(=O)[C@H](CC2CCCCC2)NC(=O)[C@H](Cc2cnc[nH]2)NC(=O)[C@@H](CC(C)C)NC(=O)[C@H](C)N(C)C(=O)[C@H](C(C)C)NC(=O)[C@H](Cc2ccc(-c3ccccc3)cc2)NC1=O` [Compound 2252] ({CH2CO}-Y(Carboxymethyl)[Phe(4-COOH)]DWL[Bip]V[NMeA][dL]H[Cha]VSC-NH2; thioether N-14), the IC50 came out at 0.08 µM. The result for `CC(C)C[C@@H]1NC(=O)[C@H](CCN)NC(=O)[C@@H](CC(C)C)NC(=O)[C@H](c2ccccc2)N(C)C(=O)[C@H](C(C)C)NC(=O)[C@H](Cc2ccc(-c3ccccc3)cc2)NC(=O)[C@H](C(C)C)NC(=O)[C@H](Cc2c[nH]c3ccccc23)NC(=O)[C@H](CC(=O)O)NC(=O)[C@H](Cc2ccc(O)cc2)NC(=O)[C@H](CC(N)=O)NC(=O)CSC[C@@H](C(=O)N[C@@H](C)C(N)=O)NC(=O)[C@H]([C@@H](C)O)NC(=O)[C@H](C(C)C)NC1=O` [Compound 1366] ({CH2CO}-NYDWV[Bip]V[NMePhg][dL][Dab]LVTCA-NH2; thioether N-14) reads 0.03 µM; that for `Cc1cccc(C[C@@H]2NC(=O)[C@H](CC(=O)O)NC(=O)[C@H](Cc3ccc(OCC(=O)O)cc3)NC(=O)[C@H](Cc3ccncc3)NC(=O)CSC[C@@H](C(=O)N[C@@H](CCN)C(N)=O)NC(=O)[C@H](CO)NC(=O)[C@H](C(C)(C)O)NC(=O)[C@H](CC3CCCCC3)NC(=O)[C@H](CCN)NC(=O)[C@@H](CC(C)C)NC(=O)[C@H](C)N(C)C(=O)[C@H](Cc3ccc(OCC(=O)O)cc3)NC(=O)[C@H](Cc3ccc(-c4ccccc4)cc3)NC(=O)[C@H](Cc3ccc(OCC(=O)O)cc3)NC2=O)c1` [Compound 2135] ({CH2CO}-[4Pal]Y(Carboxymethyl)D[Phe(3-Me)]Y(Carboxymethyl)[Bip]Y(Carboxymethyl)[NMeA][dL][Dab][Cha][Val(3-OH)]SC[Dab]-NH2; thioether N-14), 0.01 µM; that for `COc1cccc(C[C@@H]2NC(=O)[C@H](CN)NC(=O)CSC[C@@H](C(=O)N[C@@H](C)C(N)=O)NC(=O)[C@H]([C@@H](C)O)NC(=O)[C@H](C(C)C)NC(=O)[C@H](CC(C)C)NC(=O)[C@H](CCN)NC(=O)[C@@H](CC(C)C)NC(=O)[C@H](C)N(C)C(=O)[C@H](Cc3cnc[nH]3)NC(=O)[C@H](Cc3ccc(-c4ccccc4)cc3)NC(=O)[C@H](C(C)C)NC(=O)[C@H](Cc3c[nH]c4ccccc34)NC(=O)[C@H](CC(=O)O)NC2=O)c1` [Compound 1423] ({CH2CO}-[Dap][Phe(3-OMe)]DWV[Bip]H[NMeA][dL][Dab]LVTCA-NH2; thioether N-14), 0.07 µM.

For orientation: IC50 means the concentration at which inhibition is half-maximal.
